# Data taken from patent US20070128181A1, “Methods of Preventing Morbidity and Mortality by Perioperative Administration of a Blood Clotting Inhibitor” (priority 2002, published 2007).
# System: patients with medically-refractory coronary artery disease scheduled for coronary artery bypass surgery
# Assay: Prospective, longitudinal study of aspirin use within 48 hours of revascularization in coronary artery bypass surgery patients
# Type: in vivo
# Description: A prospective, longitudinal study enrolled 5,436 patients. Eligible patients included those with medically-refractory coronary artery disease and scheduled for coronary artery bypass surgery at 70 medical institutions among 17 countries in North and South America, Europe, the Middle East and Asia. At each institution, 100 patients were to be prospectively enrolled according to a systematic sampling scheme that allowed a random sampling of patients at each institution among all patients undergoing surgery at that institution.
# Of the 5,436 patients enrolled, 5,065 patients completed the study and were included in the final analysis. Of the 371 patients excluded, 32 were excluded due to patient withdrawal, 2 due to death prior to surgery, 97 due to cancellation or rescheduling of surgery, 132 patients due to change in procedure, 11 due to inadvertent enrollment in another study, 86 due to incomplete data and 11 due to incomplete blood sampling, shipping or storage.
# Aspirin was administered in doses of 160 mg to 650 mg to 3,001 patients within 48 hours of revascularization. All potential side-effects associated with aspirin use were recorded daily by blinded investigators. Independent investigators coded all medications received-including pro- and anti-thrombotic and pro- and anti-coagulant medications, and blood products—by day throughout hospitalization, as well as at admission and at discharge, or until death.
# For each enrolled patient, approximately 7,500 fields of data were collected throughout the patient's index hospitalization, from admission until discharge, by independent investigators; treated physicians were blinded to all research data. Data included demographic, historical, clinical, laboratory, eloectrocardiographic, specialized testing, resource utilization, and adverse outcomes. Following last patient enrollment, all data fields for each patient were queried centrally for completeness and accuracy, with all changes documented prior to database closure.
# All outcomes were prespecified, defined by protocol, and discerned by investigators blinded to treatment group. Fatal and non-fatal outcomes were classified as cardiac (myocardial infarction, congestive heart failure and cardiac death), cerebral (stroke, encephalopathy and cerebral death), renal (dysfunction, failure and renal death), gastrointestinal (ischemia, infarction and GI death), or other (such as infectious, pulmonary). The diagnosis of myocardial infarction required either: the development of new Q waves (as defined by Minnesota Code 1-1-1I or 1I-2-7); or new persistent S T-segment or T-wave changes (Minnesota Code 4-1,4-2, 5-1 or 5-2) associated with an elevation of CK-MB isoenzyme values; or autopsy evidence of acute myocardial infarction. The diagnosis of heart failure required either: the use of a ventricular assist device; or the use of continuous inotropic support for at least 24 hours; or autopsy evidence of heart failure. Cerebral outcomes were classified as: clinically diagnosed stroke or encephalopathy; or CT, MRI or autopsy evidence of a focal or global defect. Renal dysfunction was defined as: a serum creatinine ≧177 μmol/L accompanied by a ≧62 μmol/L rise over baseline; and renal failure was defined as dysfunction requiring dialysis, or autopsy evidence of renal failure. Gastrointestinal ischemia was defined as abdominal pain diagnosed as intestinal ischemia, or detected at exploration; infarction required bowel resection, or autopsy evidence of intestinal infarction.
# The risk of death for aspirin taking versus control populations were compared using the Chi-Square test. Individual ischemic outcomes involving the heart, brain, kidney and gastrointestinal tract, and combined ischemic outcomes were compared using Fisher's Exact Test or the Chi-Square test as appropriate. Odds ratios and the 95% confidence intervals are presented with associated P values. […]
compound,measurement,setting,value
"CC(=O)Oc1ccccc1C(=O)O [Aspirin, aspirin]",risks of dying and ischemic complications associated with platelet transfusion after reperfusion and prophylactic anti-fibrinolytics,FIG. 3A,"substantially reduced, but did not eliminate these risks"
same,risk of dying during hospitalization,"aspirin within 48 hours of revascularization, v. 5.9% without aspirin, P<0.0001",1.4%
same,"risk of non-fatal ischemic complications associated with the heart, brain, kidney or gastrointestinal tract","aspirin within 48 hours of revascularization, v. 24.5% without aspirin, P<0.0001",13.6%
same,"Odds Ratio, Multivariate Analyses for Morality",discontinuation of use (Table 3B),1.04
same,survival over the first 30 postsurgical days,"early aspirin use, FIG. 2",Improved survival
same,reduction in mortality,"first use of aspirin 48 hours after surgery, not significant, P=0.534",15%
same,"Gastritis, % of patients","human, in vivo",0.33%
same,"Hemorrhage: Gastrointestinal tract bleeding, % of patients","human, in vivo",1.1%
same,"Hemorrhage: Other Source of Bleeding, % of patients","human, in vivo",1.7%
same,"Impaired Wound Healing, % of patients","human, in vivo",4.5%
same,"Infection, % of patients","human, in vivo",8.4%
same,"Return to operating room for bleeding, % of patients","human, in vivo",1.9%
same,"Odds Ratio, Multivariate Analyses for Morality",use at admission (Table 3B),1.46
same,"Odds Ratio, Multivariate Analyses for Morality","use following revascularization, 95% CI 0.19-0.40, P <0.0001",0.27
same,"Odds Ratio, Multivariate Analyses for Morality",use prior to surgery (Table 3B),0.77
same,Length of hospitalization,"versus 11.32±9.44 without aspirin, P<0.0001",9.57±7.14
same,patients who died within 12 hours of surgery,versus 25 patients in the control group,none
same,patients who died within 48 hours of surgery,versus 42 patients from the control group,one
"CC(=O)CC(c1ccccc1)c1c(O)c2ccccc2oc1=O (stereo not shown) [Warfarin/coumadin, warfarin]","Odds Ratio, Multivariate Analyses for Morality","use over the week prior to revascularization, 95% CI 1.23-3.25, P 0.005",2.00
